Target: T1, glucocerebrosidase (Gcase) (Homo sapiens, UniProt P04062)
T1 construct: micellar solution containing 10 nM GCase and 100 nM saposin C
T1 sequence (P04062 40-536): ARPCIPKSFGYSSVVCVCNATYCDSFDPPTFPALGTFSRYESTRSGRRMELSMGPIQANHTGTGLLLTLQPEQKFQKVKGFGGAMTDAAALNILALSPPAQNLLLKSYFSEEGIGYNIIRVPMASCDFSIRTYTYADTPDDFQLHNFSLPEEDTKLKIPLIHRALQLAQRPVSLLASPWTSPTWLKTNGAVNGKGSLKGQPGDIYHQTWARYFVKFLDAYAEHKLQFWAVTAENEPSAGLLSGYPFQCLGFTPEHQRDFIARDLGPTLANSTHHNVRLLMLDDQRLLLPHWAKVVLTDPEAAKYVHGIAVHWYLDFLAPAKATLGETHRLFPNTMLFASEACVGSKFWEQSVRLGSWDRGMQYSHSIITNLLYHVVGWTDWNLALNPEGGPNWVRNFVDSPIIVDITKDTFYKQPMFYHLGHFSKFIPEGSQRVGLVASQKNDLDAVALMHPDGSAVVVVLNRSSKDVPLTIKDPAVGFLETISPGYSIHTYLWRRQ
Assay: Glucocerebrosidase (Gcase) activation assay, 4-methylumbelliferyl-beta-D-glucopyranoside substrate, with saposin C
Format: biochemical
Conditions: 0.25 h; for activation at 0.1 µM: read-out: Percent Gcase Activation 0.1 μM Test Compound; for activation at 1 µM: read-out: Percent Gcase Activation 1 μM Test Compound
Method: The ability of exemplary compounds to activate glucocerebrosidase (Gcase) was measured.
A 484 μL aliquot of a 1.0 mg/mL solution of phosphatidylserine (PS) (Sigma P7769) in chloroform was evaporated under a stream of nitrogen for 1 hour. The lipid film was dissolved over 4 minutes of vigorous vortexing in 40 mL of 176 mM K2HPO4/50 mM citric acid (pH 4.7) containing 7.5 μL of triton X-100, resulting in a mixed micellar preparation with a composition of 0.32 mM triton and 0.37 mol % PS. 4-Methylumbelliferyl-beta-D-glucopyranoside (ACROS-337025000) was dissolved in the micellar solution to a final concentration of 2 mM for use as the reaction substrate.
Test compounds were diluted to the desired concentrations with dimethylsulfoxide (DMSO) from 10 mM stocks, and 0.41 μL of the DMSO compound mixture was added to 100 μL of micellar solution containing 10 nM GCase and 100 nM saposin C (Enzo ALX-201-262-C050). Pre-incubation was allowed to occur for 30 minutes at room temperature, after which the reaction was initiated by combining 25 μL of substrate solution with 25 μL of compound/GCase/saposin mixture. The reaction proceeded for 15 minutes at room temperature and was stopped by adding 150 μL of 1M glycine, pH 12.5. The endpoint of the reaction was monitored by measuring fluorescence intensity (excitation: 365 nm; emission: 440 nm) on a SpectraMax i3 instrument (Molecular Devices). Test compounds were screened at 1.0 and 0.1 μM final concentration, and subsequent 8-point dose response curves were obtained using 3-fold dilutions from a maximum final concentration of 5 μM.
The symbol “+” indicates less than 5% Gcase activation; the symbol “++” indicates Gcase activation in the range of 5% up to 20%; and the symbol “+++” indicates Gcase activation greater than 20%.

Compound | activation at 0.1 µM [%] | activation at 1 µM [%]
Cc1ccc(-c2cc(C)c3ncc(C(=O)N[C@H](C4CC4)C(F)(F)F)n3n2)cn1 [(R)-6-(6-Methylpyridin-3-yl)-N-(1-cyclopropyl-2,2,2-trifluoroethyl)-8-methylimidazo[1,2-b]pyridazine-3-carboxamide] | 5 to 20 | > 20
Cc1cc2ncc(C(=O)NC3CCCc4ccccc43)n2nc1Cl (stereo not shown) | < 5 | 5 to 20
Cc1cc(-c2ccc(F)cc2C#N)nn2c(C(=O)N[C@@H](C3CC3)C(F)(F)F)ncc12 [(S)-2-(2-Cyano-4-fluorophenyl)-N-(1-cyclopropyl-2,2,2-trifluoroethyl)-4-methylimidazo[1,5-b]pyridazine-7-carboxamide] | 5 to 20 | > 20
COc1cncc(-c2cc(C)c3ncc(C(=O)N[C@H](C4CC4)C(F)(F)F)n3n2)c1 | 5 to 20 | > 20
Cc1cc(-c2cccc(F)c2C#N)nn2c(C(=O)N[C@@H](C)C(F)(F)F)cnc12 [(S)-6-(2-Cyano-3-fluorophenyl)-8-methyl-N-(1,1,1-trifluoropropan-2-yl)imidazo[1,2-b]pyridazine-3-carboxamide] | 5 to 20 | > 20
C#Cc1ccc(NC(=O)c2ncc3c(C)cc(C)nn23)cc1 | < 5 | > 20
Cc1cc(C)c2ncc(C(=O)NC(C3CC3)C(F)(F)F)n2n1 (stereo not shown) | < 5 | > 20
Cc1cc(-c2cccc(C(N)=O)c2)nc2c(C(=O)NC(C3CC3)C(F)(F)F)csc12 (stereo not shown) | > 20 | > 20
Cc1cc(-c2cncc(Cl)c2)nn2c(C(=O)N[C@@H](C3CC3)C(F)(F)F)cnc12 | > 20 | > 20
Cc1cc(-c2cccc(C#N)c2)nn2c(C(=O)NC(C3CC3)C(F)(F)F)cnc12 (stereo not shown) | > 20 | > 20
Cc1cc(-c2ccc(C(N)=O)o2)nn2c(C(=O)N[C@@H](C3CC3)C(F)(F)F)ncc12 | 5 to 20 | > 20
Cc1cc(-c2ccc(F)cc2)nn2c(C(=O)N[C@@H](C)C3CC3)nnc12 | < 5 | < 5
Cc1cc(C)c2ncc(C(=O)NC(C)(C)C3CC3)n2n1 | 5 to 20 | > 20
Cc1cc(C#N)c(-c2cc(C)c3ncc(C(=O)N[C@@H](C)C(F)(F)F)n3n2)o1 | > 20 | > 20
Cc1cc(-c2ccc(F)cc2C#N)nn2c(C(=O)N[C@@H](C)C(F)(F)F)cnc12 | 5 to 20 | > 20
Cc1cc(-c2cc(F)ccc2C#N)nn2c(C(=O)N[C@@H](C)C(F)(F)F)cnc12 [(S)-6-(2-Cyano-5-fluorophenyl)-8-methyl-N-(1,1,1-trifluoropropan-2-yl)imidazo[1,2-b]pyridazine-3-carboxamide] | 5 to 20 | > 20
Cc1cc(-c2cccc3ocnc23)nn2c(C(=O)NC(C3CC3)C(F)(F)F)cnc12 (stereo not shown) | 5 to 20 | > 20
Cc1cc(-c2ccccn2)nc2c(C(=O)NC(C3CC3)C(F)(F)F)nsc12 (stereo not shown) | < 5 | 5 to 20
Cc1cc(C)c2ncc(C(=O)N[C@@H](C)C3CC3)n2n1 | < 5 | 5 to 20
COc1cncc(-c2cc(C)c3ncc(C(=O)N[C@@H](C4CC4)C(F)(F)F)n3n2)c1 | 5 to 20 | > 20
COc1cccc(-c2cc(C)c3ncc(C(=O)NC(C4CC4)C(F)(F)F)n3n2)c1 (stereo not shown) | > 20 | > 20
Cc1cc(-c2cc(F)ccc2C#N)nn2c(C(=O)N[C@@H](C)C3CC3)cnc12 [(S)-6-(2-Cyano-5-fluorophenyl)-N-(1-cyclopropylethyl)-8-methylimidazo[1,2-b]pyridazine-3-carboxamide] | 5 to 20 | > 20

Compound | activation at 0.1 µM [%] | activation at 1 µM [%]
Cc1cc(-c2ccc3ocnc3c2)nn2c(C(=O)N[C@H](C)C(F)(F)F)cnc12 | 5 to 20 | > 20
COc1cccc(-c2cc(C)c3ncc(C(=O)NC(C4CC4)C(F)(F)F)n3n2)n1 (stereo not shown) | > 20 | > 20
Cc1cc(-c2cccc(F)c2C#N)nn2c(C(=O)N[C@@H](C)C3CC3)cnc12 [(S)-6-(2-Cyano-3-fluorophenyl)-N-(1-cyclopropylethyl)-8-methylimidazo[1,2-b]pyridazine-3-carboxamide] | > 20 | > 20
Cc1cc(-c2cccc(F)c2)nn2c(C(=O)NC(C)C(F)(F)F)ncc12 (stereo not shown) | 5 to 20 | > 20
C#CC(NC(=O)c1ncc2c(C)cc(-c3cccc(F)c3)nn12)C(F)(F)F (stereo not shown) [2-(3-Fluorophenyl)-4-methyl-N-(1,1,1-trifluorobut-3-yn-2-yl)imidazo[1,5-b]pyridazine-7-carboxamide] | > 20 | > 20
Cc1cc(C)c2onc(C(=O)NC(C3CC3)C(F)(F)F)c2n1 (stereo not shown) [N-(1-Cyclopropyl-2,2,2-trifluoroethyl)-5,7-dimethylisoxazolo[4,5-b]pyridine-3-carboxamide] | < 5 | > 20
Cc1cc(-c2ccon2)nn2c(C(=O)NC(C3CC3)C(F)(F)F)cnc12 (stereo not shown) | 5 to 20 | > 20
CCCCCO[C@H]1CC[C@H](NC(=O)c2cnc3c(C)cc(C)nn23)CC1 | 5 to 20 | > 20
Cc1cc(Cl)nn2c(C(=O)Nc3ccc4c(c3)CCC4)cnc12 | 5 to 20 | > 20
Cc1cc2ncc(C(=O)Nc3ccc4c(c3)CCC4)n2nc1Cl | < 5 | 5 to 20
Cc1cc(-c2ccc(F)cc2C#N)nn2c(C(=O)N[C@H](C3CC3)C(F)(F)F)cnc12 | 5 to 20 | > 20
Cc1cc(C)c2ncc(C(=O)Nc3ccc(-c4cocn4)cc3)n2n1 | < 5 | > 20
Cc1cc(-c2ccc(F)o2)nn2c(C(=O)NC(C3CC3)C(F)(F)F)cnc12 (stereo not shown) | > 20 | > 20
CCCCCO[C@H]1CC[C@H](NC(=O)c2noc3c(C)cc(C)nc23)CC1 [5,7-Dimethyl-N-((1R,4R)-4-(pentyloxy)cyclohexyl)isoxazolo[4,5-b]pyridine-3-carboxamide] | 5 to 20 | > 20
Cc1cc(C#N)c(-c2cc(C)c3ncc(C(=O)N[C@H](C)C(F)(F)F)n3n2)o1 | 5 to 20 | > 20
CCC(NC(=O)c1cnc2cc(C)c(Cl)nn12)c1ccccc1 (stereo not shown) | < 5 | 5 to 20
CCC(NC(=O)c1noc2c(C)cc(C)nc12)c1ccccc1 (stereo not shown) [5,7-Dimethyl-N-(1-phenylpropyl)isoxazolo[4,5-b]pyridine-3-carboxamide] | 5 to 20 | > 20
Cc1cc(-c2cc(C)c3cnc(C(=O)N[C@@H](C4CC4)C(F)(F)F)n3n2)sn1 [(S)—N-(1-Cyclopropyl-2,2,2-trifluoroethyl)-4-methyl-2-(3-methylisothiazol-5-yl)imidazo[1,5-b]pyridazine-7-carboxamide] | 5 to 20 | > 20
C#Cc1ccc(NC(=O)c2cnc3c(C)cc(C)nn23)cc1 | 5 to 20 | > 20
Cc1cc(-c2cccc(C(N)=O)c2)nc2c(C(=O)NC(C3CC3)C(F)(F)F)nsc12 (stereo not shown) | < 5 | 5 to 20
Cc1cc(N2CC(C(C)C)OC2=O)nn2c(C(=O)N[C@H](C3CC3)C(F)(F)F)cnc12 (stereo partly drawn) [N—((R)-1-Cyclopropyl-2,2,2-trifluoroethyl)-6-(5-isopropyl-2-oxooxazolidin-3-yl)-8-methylimidazo[1,2-b]pyridazine-3-carboxamide] | 5 to 20 | > 20
Cc1cc(-c2ccc(C#N)o2)nn2c(C(=O)N[C@@H](C3CC3)C(F)(F)F)ncc12 | > 20 | > 20

— patent US11168087B2, “Substituted imidazo[1,2-b]pyridazines, substituted imidazo[1,5-b]pyridazines, related compounds, and their use in the treatment of medical disorders” (BIAL—R&D Investments, S.A., priority 2016, dated 2021)
